The values below are quoted from earlier work in US20130101864A1, “Multifunctional Long-Acting Rust-Proof Film and Manufacturing Method Thereof” (Zhejiang Great Southeast Packaging Co., Ltd., priority 2010, published 2013).

For data set [1] the following is noted: no harmful physiological toxicity on human body.

In the case of `c1ccc2[nH]nnc2c1` [Benzotriazole], the “solubility in organic solvents” value (alcohol, benzene, toluene, chloroform and dimethylformamide) is given as “soluble”. Also, for the setting “water”, the solubility in water result is listed as “slightly soluble”. For the same molecule, the toxicity entry in data set [1] is listed as “non-toxic”.
